Read-outs that look alike come from different tables or passages of the source.
How the values were obtained:
TIM of T. cruzi (TcTIM) = molecular target: T1, TIM of T. cruzi (TcTIM) (Trypanosoma cruzi, UniProt P52270); experiment: Inhibition of activity of recombinant wild type TcTIM after 2 h incubation; format: biochemical
T1 construct: made in house; host or cells: Escherichia coli
Procedure: (§1) TcTIM [19] and TIMs from T. brucei, L. mexicana, and Homo sapiens were expressed in Escherichia coli and purified as described in the indicated references. After purification, the enzymes dissolved in 100 mM triethanolamine, 10 mM EDTA and 1 mM dithiothreitol (pH 8) were precipitated with ammonium sulfate (75% saturation) and stored at 4°C. Before use, the enzymes were extensively dialyzed against 100 mM triethanolamine/10 mM EDTA (pH 7.4). Protein was determined from their absorbance at 280 nm. The ε M^−1 cm^−1 was 36440 for TcTIM, and 33460 for TbTIM and LmTIM.
(§2) In all the experiments, a solution of DTDA in dimethylsulfoxide (DMSO) was used. The final DMSO concentration in all experiments was 10% (v/v).
(§3) The indicated TIMs were incubated at pH 7.4 at a concentration of 5 µg per ml of 100 mM triethanolamine, 10 mM EDTA, 10% dimethyl sulfoxide (v/v), and DTDA at the concentrations indicated in the Results section for 2 hours at 36°C. At this time, an aliquot was withdrawn for assay of activity.
(§4) Activity was determined in the direction of glyceraldehyde 3-phosphate to dihydroxyacetone phosphate. The decrease in absorbance at 340 nm was followed in a Hewlett Packard spectrophotometer at 25°C. The reaction mixture (1 ml) contained 100 mM triethanolamine, 10 mM EDTA, 0.2 mM NADH, 1 mM glyceraldehyde 3-phosphate, and 0.9 units α-glycerolphosphate dehydrogenase (pH 7.4). The reaction was started by the addition of TIM, usually 5 ng. The average specific activity of the various preparations of TcTIM used in this work was 2900±200 µmol/min/mg.

rats = test system: rats; design: method as in PMID 4078223; details: cited from earlier work
[1] = molecular target: T2, TIM from H. sapiens (HTIM) (Homo sapiens, UniProt P60174); experiment: Inhibition of activity of human TIM after 2 h incubation; format: biochemical
T2 construct: made in house; host or cells: Escherichia coli
Procedure: as §1, §2, §3, §4

TbTIM = molecular target: T3, TbTIM (Trypanosoma brucei brucei, UniProt P04789); experiment: Inhibition of activity of TbTIM after 2 h incubation; format: biochemical
T3 construct: made in house; host or cells: Escherichia coli
Procedure: as §1, §2, §3
as §4, with “The reaction was started by the addition of TIM, usually 5 ng. The average specific activity of the various preparations of TcTIM used in this work was 2900±200 µmol/min/mg.” left out

LmTIM = molecular target: T4, LmTIM (Leishmania mexicana, UniProt P48499); experiment: Inhibition of activity of LmTIM after 2 h incubation; format: biochemical
T4 construct: made in house; host or cells: Escherichia coli
Procedure: as §1, §2, §3, §4

TcTIM C118V = molecular target: T5, TcTIM C118V (Trypanosoma cruzi, UniProt P52270, C118V); experiment: Inhibition of activity of TcTIM C118V mutant; format: biochemical; details: 2 h, 36°C, 10% DMSO, read-out: IC50, concentration of DTDA that induces 50% inhibition
T5 construct: made in house
Procedure: as §2, §3, §4

TbTIM V118C = TbTIM V118C (Trypanosoma brucei brucei, UniProt P04789, V117C); experiment: Inhibition of activity of TbTIM V118C mutant; format: biochemical
Procedure: as §2, §3, §4

TcTIM C15A = molecular target: T6, TcTIM C15A (Trypanosoma cruzi, UniProt P52270, C15A); experiment: Inhibition of activity of TcTIM C15A mutant; format: biochemical; details: 2 h, 36°C, 10% DMSO, read-out: IC50, concentration of DTDA that induces 50% inhibition
T6 construct: made in house
Procedure: as §2, §3, §4

TcTIM C40A = molecular target: T7, TcTIM C40A (Trypanosoma cruzi, UniProt P52270, C40A); experiment: Inhibition of activity of TcTIM C40A mutant; format: biochemical; details: half-maximal inhibition of the initial phase (biphasic response), read-out: IC50, concentration of DTDA that induces 50% inhibition
T7 construct: made in house
Procedure: as §2, §3, §4

TcTIM C127A = molecular target: T8, TcTIM C127A (Trypanosoma cruzi, UniProt P52270, C127A); experiment: Inhibition of activity of TcTIM C127A mutant; format: biochemical; details: 2 h, 36°C, 10% DMSO, read-out: IC50, concentration of DTDA that induces 50% inhibition
T8 construct: made in house
Procedure: as §2, §3, §4

E. coli JM103 cells = experiment: Growth of intact E. coli (own TIM) in minimal media; format: cell-based, Escherichia coli; details: 30 µM, M9 medium, 10% DMSO, absorbance at 600 nm
Procedure: (§5) E. coli JM103 cells were used as control. E. coli devoid of their endogenous TIM termed VR101 [10] were kindly provided by Dr. Gloria Saab-Rincón; these cells have a kanamicin resistant cassette. […] The strains were grown at 37°C in solid Luria-Bertani medium that had been supplemented with 50 µg of kanamycin and 50 µg of ampicilin per ml. One colony was transferred to M9 medium that had 10% DMSO and 50 µg of each of the latter antibiotics per ml. Growth of the various cells was followed throughout time by measuring the absorbance of the culture at 600 nm.

[2] = test system: E. coli cells that had TcTIM instead of their own TIM; experiment: Growth of E. coli devoid of endogenous TIM transformed with TcTIM; format: cell-based, Escherichia coli
Procedure: as §5

T. cruzi epimastigotes = experiment: Culture of T. cruzi epimastigotes, cell number up to 72 hours; format: cell-based, Trypanosoma cruzi
Procedure: Where indicated in the Results section, the media was supplemented with the indicated concentrations of DTDA. The number of cells was recorded at various times for as long as 72 hours.

hemoglobin = test system: hemoglobin; design: method as in PMID 4078222; details: cited from earlier work
rodents = test system: rodents; design: method as in PMID 7265299; details: cited from earlier work
[3] = concentrations as high as 200 µM

T4 sequence (P48499 whole entry): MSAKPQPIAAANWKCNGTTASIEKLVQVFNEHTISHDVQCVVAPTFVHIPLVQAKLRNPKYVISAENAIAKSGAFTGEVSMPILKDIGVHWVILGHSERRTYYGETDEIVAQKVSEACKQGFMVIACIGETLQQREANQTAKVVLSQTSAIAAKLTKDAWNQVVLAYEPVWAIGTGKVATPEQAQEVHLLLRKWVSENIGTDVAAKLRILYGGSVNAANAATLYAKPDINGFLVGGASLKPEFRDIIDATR
T2 sequence (P60174 whole entry): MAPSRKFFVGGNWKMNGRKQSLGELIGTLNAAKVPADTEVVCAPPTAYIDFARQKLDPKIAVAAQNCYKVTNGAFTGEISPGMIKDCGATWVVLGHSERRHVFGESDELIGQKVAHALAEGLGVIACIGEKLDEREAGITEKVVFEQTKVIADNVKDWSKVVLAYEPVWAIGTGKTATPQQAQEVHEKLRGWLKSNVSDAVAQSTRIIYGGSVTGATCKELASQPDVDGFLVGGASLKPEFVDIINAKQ
T1 sequence (P52270 whole entry): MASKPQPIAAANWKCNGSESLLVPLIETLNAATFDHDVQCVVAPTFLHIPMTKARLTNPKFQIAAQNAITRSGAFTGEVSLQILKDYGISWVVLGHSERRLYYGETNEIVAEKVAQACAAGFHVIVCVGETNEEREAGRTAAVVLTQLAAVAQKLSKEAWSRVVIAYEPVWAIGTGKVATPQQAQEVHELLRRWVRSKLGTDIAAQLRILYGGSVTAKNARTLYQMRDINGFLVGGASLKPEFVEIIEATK
T3 sequence (P04789 whole entry): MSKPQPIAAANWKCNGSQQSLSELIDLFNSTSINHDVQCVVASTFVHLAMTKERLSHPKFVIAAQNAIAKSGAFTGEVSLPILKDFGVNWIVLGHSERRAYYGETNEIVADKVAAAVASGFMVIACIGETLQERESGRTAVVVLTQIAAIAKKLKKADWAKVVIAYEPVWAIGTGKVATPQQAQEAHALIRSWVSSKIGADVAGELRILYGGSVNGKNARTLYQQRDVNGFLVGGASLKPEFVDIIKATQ
Sequence of TbTIM V118C (P04789 whole entry V117C): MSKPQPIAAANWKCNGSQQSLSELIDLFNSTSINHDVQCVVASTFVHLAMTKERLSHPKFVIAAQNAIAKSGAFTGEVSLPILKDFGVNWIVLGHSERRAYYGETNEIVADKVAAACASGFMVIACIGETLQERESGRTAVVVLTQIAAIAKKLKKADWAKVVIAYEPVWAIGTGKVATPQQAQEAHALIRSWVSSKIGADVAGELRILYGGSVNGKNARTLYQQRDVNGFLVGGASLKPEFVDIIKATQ
T6 sequence (P52270 whole entry C15A): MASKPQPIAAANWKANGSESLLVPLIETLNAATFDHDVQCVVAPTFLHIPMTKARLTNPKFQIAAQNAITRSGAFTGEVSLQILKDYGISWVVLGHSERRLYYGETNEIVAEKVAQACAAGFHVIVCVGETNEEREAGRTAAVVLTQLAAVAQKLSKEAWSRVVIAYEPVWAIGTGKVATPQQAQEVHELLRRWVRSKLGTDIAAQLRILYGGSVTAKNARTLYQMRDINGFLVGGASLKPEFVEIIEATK
T5 sequence (P52270 whole entry C118V): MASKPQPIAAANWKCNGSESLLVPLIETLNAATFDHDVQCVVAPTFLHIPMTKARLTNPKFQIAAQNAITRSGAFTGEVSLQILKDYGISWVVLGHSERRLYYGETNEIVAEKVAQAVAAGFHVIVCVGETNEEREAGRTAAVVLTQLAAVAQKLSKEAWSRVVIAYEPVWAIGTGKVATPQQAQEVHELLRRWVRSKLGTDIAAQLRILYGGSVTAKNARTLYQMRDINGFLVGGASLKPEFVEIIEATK
T8 sequence (P52270 whole entry C127A): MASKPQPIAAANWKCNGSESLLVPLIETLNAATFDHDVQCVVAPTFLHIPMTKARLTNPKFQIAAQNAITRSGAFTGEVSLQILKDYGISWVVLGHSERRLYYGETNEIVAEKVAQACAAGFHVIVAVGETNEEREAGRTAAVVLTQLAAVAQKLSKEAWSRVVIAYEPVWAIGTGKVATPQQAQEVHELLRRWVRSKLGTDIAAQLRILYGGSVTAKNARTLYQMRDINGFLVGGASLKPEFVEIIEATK
T7 sequence (P52270 whole entry C40A): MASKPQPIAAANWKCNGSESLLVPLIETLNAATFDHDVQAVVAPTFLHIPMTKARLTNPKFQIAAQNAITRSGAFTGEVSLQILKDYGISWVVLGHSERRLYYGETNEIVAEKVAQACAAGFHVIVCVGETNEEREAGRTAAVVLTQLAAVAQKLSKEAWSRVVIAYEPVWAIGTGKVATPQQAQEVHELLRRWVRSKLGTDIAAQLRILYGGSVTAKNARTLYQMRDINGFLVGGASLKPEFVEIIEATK

Nc1ccccc1SCSc1ccccc1N [2,2′-(methylenebisthioaniline)]
IC50 (TIM of T. cruzi (TcTIM); read-out: concentration required to inhibit the activity of TcTIM by 50%): 50000 nM

Nc1ccc(SSc2ccc(N)cc2)cc1 [4,4′-diamino disulfide]
toxic effect on administration to rats (rats): hematological alterations

Nc1ccccc1SSc1ccccc1N [DTDA, 2,2′-dithiodianiline]
IC50 (TIM of T. cruzi (TcTIM); 2 h, 36°C, 10% DMSO, read-out: concentration that induced 50% inhibition of the activity of TcTIM): 260 nM | IC50 (TIM of T. cruzi (TcTIM); TcTIM wild, 5 µg/ml enzyme, 2 h, 36°C, 10% DMSO, read-out: IC50, concentration of DTDA that induces 50% inhibition): 258 ± 35 nM | effect on the activity of HTIM ([1]; 10 µM, 2 h, 36°C): did not affect | IC50 ([1]; 2 h, 36°C, 10% DMSO, read-out: concentration for fifty percent inhibition of HTIM activity): 98000 nM | selectivity for TcTIM in reference to HTIM ([1]; ratio of concentrations for 50% inhibition, HTIM vs TcTIM): ~400 times | effect on the activity of TbTIM (TbTIM; 10 µM, 2 h, 36°C): did not affect | sensitivity of TbTIM activity (TbTIM; [3]): completely insensitive | effect on the activity of LmTIM (LmTIM; 10 µM, 2 h, 36°C): did not affect | IC50 (LmTIM; LmTIM, 2 h, 36°C, 10% DMSO, read-out: IC50, concentration of DTDA that induces 50% inhibition): > 200000 nM | sensitivity of LmTIM activity (LmTIM; [3]): completely insensitive | IC50 (TcTIM C118V): 208 ± 37 nM | IC50 (TbTIM V118C): > 200000 nM | sensitivity of TbTIM V118C mutant activity (TbTIM V118C; 200 µM): insensitive | IC50 (TcTIM C15A): 346 ± 32 nM | IC50 (TcTIM C40A): 1530 ± 450 nM | IC50 (TcTIM C127A): 57 ± 8 nM | effect on growth of E. coli cells that worked with their own TIM (E. coli JM103 cells): had no effect | effect on growth of E. coli cells that relied on the function of TcTIM ([2]; 30 µM, M9 medium, 10% DMSO, absorbance at 600 nm): effectively prevented | effect on the lag that precedes logarithmic growth of TcTIM transformed E. coli ([2]; concentrations as low as 4 µM): important increase in the lag | permeability of biological membranes to the compound ([2]; inferred from the effect on TcTIM transformed E. coli): permeable | effect on growth of T. cruzi epimastigotes (T. cruzi epimastigotes; 4 µM, up to 72 hours): inhibition of growth | effect on survival of T. cruzi parasites in cell cultures (T. cruzi epimastigotes; 10 µM and 15 µM): causes death of parasites | effect on growth of T. cruzi epimastigotes (T. cruzi epimastigotes; 4–8 µM): significant inhibition of the growth | effect on the number of T. cruzi epimastigotes in culture (T. cruzi epimastigotes; concentrations higher than 8 µM, up to 72 hours): significant decrease in the number of cells | effect on hemoglobin (hemoglobin): irreversible oxidation of hemoglobin

diaminodiphenyldisulfide
toxic effect on the kidney (rodents): atrophy and hyperplasia in the kidney | toxic effect on the liver (rodents): necrotic changes in the liver
